# B1: +2GFP-C6.5: +2GFP fused to C6.5 scFv; variant a or b not stated (protein)
# scFv: QVQLLQSGAELKKPGESLKISCKGSGYSFTSYWIAWVRQMPGKGLEYMGLIYPGDSDTKYSPSFQGQVTISVDKSVSTAYLQWSSLKPSDSAVYFCARHDVGYCSSSNCAKWPEYFQHWGQGTLVTVSSGGGGSGGGGSGGGGSQSVLTQPPSVSAAPGQKVTISCSGSSSNIGNNYVSWYQQLPGTAPKLLIYGHTNRPAGVPDRFSGSKSGTSASLAISGFRSEDEADYYCAAWDDSLSGWVFGGGTKLTVLGGHGHHHHHH
# modifications: left off: large carriers; small tags and cut ends
# Assays:
# Type in all cases: cell-based
# [1] = tested on: MDA-MB-468 (Her2^Low) cells; experiment: Flow cytometry detection of internalized GFP protein (Example 4); conditions: 1 μM, 2 hours, serum free media
# Protocol: These two types of cells express different levels of Her2 protein (FIG. 8). […] MDA-MB-468 cells express very low levels of Her2 (referred to as Her2^Low) while AU565 cells express high levels of Her2 (referred to as Her2^high).
# The media were replaced with serum free media containing 1 μM of a protein listed below, and incubated for 2 hours. Cells were washed 3×PBS, trypsinized, fixed with 4% PFA, washed with PBS and then analyzed by flow cytometry with detection of GFP.
# Results: Flow cytometry analysis is indicative of the amount of protein internalized into the cells. FIGS. 9A and 9B show the flow cytometry data obtained for different tested samples at various conditions. The median fluorescence values obtained from the flow cytometry peak minus the median fluorescence values of untreated cells (background fluorescence) are shown in FIGS. 10A and 10B. See also Table 7. The first column indicates identifies the GFP-component of the construct used for the particular sample treatment. The second and third columns represents fluorescence in MDA-MB-468 cells following treatment with each of the GFP proteins alone (second column; examples of use of CPMs alone) or with each of the GFP-C6.5 fusion proteins (third column; examples of fusion proteins comprising a target-binding region and a CPM region). The fourth and fifth column fluorescence in AU565 cells following treatment with each of the GFP proteins alone (fourth column; examples of use of CPMs alone) or with each of the GFP-C6.5 fusion proteins (fifth column; examples of fusion proteins comprising a target-binding region and a CPM region).
# AU565 (Her2^high) cells [2] = experiment: Flow cytometry uptake in mixed cell population, concentration series (Example 5); conditions: 2 h, first set
# Protocol: (§1) The media were replaced with serum free media containing indicated concentrations of protein listed below and incubated for 2 h. Cells were washed 3×PBS, trypsinized, fixed with 4% PFA, stained with Her2 Ab-APC for 0.5 hour, washed with PBS and then analyzed by flow cytometry with detection of GFP.
# (§2) The tested proteins of the first and second sets of experiments were applied to the mixed cell population for two hours.
# (§3) The above data were also plotted in FIGS. 13A-13H to show the median fluorescence value minus background fluorescence of untreated cells (background adjusted fluorescence) (Y-axis) as a function of concentration (X-axis) for each of the tested proteins in this Example. Cellular uptake of the proteins was measured by GFP fluorescence. Her2 expression level was measured by using a Her2 antibody conjugated with allophycocyanin (APC). Gating was applied to the flow cytometry data to identify Her2^1′ versus Her2^high populations. […] The Her2^low profiles (diamond) are indicative of the profile of charged GFP alone. The Her2^high profiles (square) are indicative of the profile of the charged GFP in combination with the target-binding region—C6.5 scFv. The data of sfGFP-C6.5 on the Her2^high cells reflects the profile of the target-binding region (C6.5) by itself.
# [3] = tested on: MDA-MB-468 (Her2^Low) cells; experiment: as above; conditions: 2 h; for Median Fluorescence Values, MDA-MB-468 cells (Her2−) GFP-C6.5 / Median Fluorescence Values, MDA-MB-468 cells (Her2−) C6.5-GFP: first set; for Median Fluorescence Values, Her2− GFP-C6.5: second set
# Protocol: as §1, §2, §3
# AU565 (Her2^high) cells [4] = experiment: Flow cytometry detection of internalized GFP protein (Example 4); conditions: 1 μM, 2 hours, serum free media
# AU565 (Her2^high) cells [5] = experiment: Flow cytometry uptake in mixed cell population, time course (Example 6); conditions: 0.1 μM
# Protocol: (§4) The media were replaced with serum free media containing 0.1 μM of protein listed below and incubated for 10 minutes, 30 minutes or 4 hours. Cells were washed 3×PBS, trypsinized, stained with Her2 Antibody-APC for 0.5 hours, washed with PBS and then analyzed by flow cytometry with detection of GFP.
# [6] = tested on: MDA-MB-468 (Her2^Low) cells; experiment: as above; conditions: 0.1 μM
# Protocol: as §4
# SKOV-3 cells (Her2^high) = experiment: Cellular uptake by fluorescence microscopy; conditions: 1 μM, 1 hour
# Protocol: These images were taken to assess cellular uptake of these GFP-containing proteins by fluorescence microscopy. The images shown are an overlay of phase contrast and GFP fluorescence images.
# In addition, SKOV-3 cells (Her2^high) were treated with 1 μM of proteins for 1 hour, and then images were taken to assess cellular uptake of GFP proteins by fluorescence microscopy (FIG. 11A).
molecule,measurement,setting,value
"+15GFP-C6.5: fusion of +15GFP, (S4G)6 spacer, C6.5 scFv, His6","median fluorescence values, MDA-MB-468 (Her2^Low) GFP-C6.5",[1],"313,629"
same,"Median Fluorescence Values, AUS65 cells (Her2+) GFP-C6.5",AU565 (Her2^high) cells [2]; 0.03 uM,"37,663"
same,"Median Fluorescence Values, AUS65 cells (Her2+) GFP-C6.5",AU565 (Her2^high) cells [2]; 0.1 uM,"74,673"
same,"Median Fluorescence Values, AUS65 cells (Her2+) GFP-C6.5",AU565 (Her2^high) cells [2]; 0.3 uM,"128,374"
same,"Median Fluorescence Values, AUS65 cells (Her2+) GFP-C6.5",AU565 (Her2^high) cells [2]; 1 uM,"180,065"
same,"Median Fluorescence Values, MDA-MB-468 cells (Her2−) GFP-C6.5",[3]; 0.03 uM,"13,012"
same,"Median Fluorescence Values, MDA-MB-468 cells (Her2−) GFP-C6.5",[3]; 0.1 uM,"36,343"
same,"Median Fluorescence Values, MDA-MB-468 cells (Her2−) GFP-C6.5",[3]; 0.3 uM,"76,116"
same,"Median Fluorescence Values, MDA-MB-468 cells (Her2−) GFP-C6.5",[3]; 1 uM,"155,734"
same,"median fluorescence values, AU565 (Her2^high) GFP-C6.5",AU565 (Her2^high) cells [4],"413,838"
same,"cellular uptake (flow cytometry with detection of GFP), Her2+ GFP-C6.5",AU565 (Her2^high) cells [5]; 10 min,"18,606"
same,"cellular uptake (flow cytometry with detection of GFP), Her2+ GFP-C6.5",AU565 (Her2^high) cells [5]; 30 min,"35,981"
same,"cellular uptake (flow cytometry with detection of GFP), Her2+ GFP-C6.5",AU565 (Her2^high) cells [5]; 4 h,"148,261"
same,"cellular uptake (flow cytometry with detection of GFP), Her2− GFP-C6.5",[6]; 10 min,"10,665"
same,"cellular uptake (flow cytometry with detection of GFP), Her2− GFP-C6.5",[6]; 30 min,"22,262"
same,"cellular uptake (flow cytometry with detection of GFP), Her2− GFP-C6.5",[6]; 4 h,"144,923"
"C6.5-+15GFP: fusion of N-terminal C6.5 scFv, (S4G)6 spacer, +15GFP, His6","median fluorescence values, MDA-MB-468 (Her2^Low) GFP-C6.5",[1],"767,627"
same,"Median Fluorescence Values, AUS65 cells (Her2+) C6.5-GFP",AU565 (Her2^high) cells [2]; 0.03 uM,"75,821"
same,"Median Fluorescence Values, AUS65 cells (Her2+) C6.5-GFP",AU565 (Her2^high) cells [2]; 0.1 uM,"162,337"
same,"Median Fluorescence Values, AUS65 cells (Her2+) C6.5-GFP",AU565 (Her2^high) cells [2]; 0.3 uM,"305,944"
same,"Median Fluorescence Values, AUS65 cells (Her2+) C6.5-GFP",AU565 (Her2^high) cells [2]; 1 uM,"822,351"
same,"Median Fluorescence Values, MDA-MB-468 cells (Her2−) C6.5-GFP",[3]; 0.03 uM,"13,355"
same,"Median Fluorescence Values, MDA-MB-468 cells (Her2−) C6.5-GFP",[3]; 0.1 uM,"36,070"
same,"Median Fluorescence Values, MDA-MB-468 cells (Her2−) C6.5-GFP",[3]; 0.3 uM,"82,571"
same,"Median Fluorescence Values, MDA-MB-468 cells (Her2−) C6.5-GFP",[3]; 1 uM,"306,260"
same,"median fluorescence values, AU565 (Her2^high) GFP-C6.5",AU565 (Her2^high) cells [4],"2,170,916"
same,cellular uptake by fluorescence microscopy,SKOV-3 cells (Her2^high),internalized efficiently in the cells
same,"cellular uptake (flow cytometry with detection of GFP), Her2+ C6.5-GFP",AU565 (Her2^high) cells [5]; 10 min,"37,044"
same,"cellular uptake (flow cytometry with detection of GFP), Her2+ C6.5-GFP",AU565 (Her2^high) cells [5]; 30 min,"61,007"
same,"cellular uptake (flow cytometry with detection of GFP), Her2+ C6.5-GFP",AU565 (Her2^high) cells [5]; 4 h,"184,844"
same,"cellular uptake (flow cytometry with detection of GFP), Her2− C6.5-GFP",[6]; 10 min,"13,517"
same,"cellular uptake (flow cytometry with detection of GFP), Her2− C6.5-GFP",[6]; 30 min,"17,194"
same,"cellular uptake (flow cytometry with detection of GFP), Her2− C6.5-GFP",[6]; 4 h,"96,599"
"sfGFP-C6.5: fusion of superfolder GFP, (S4G)6 spacer, C6.5 anti-Her2 scFv, His6","median fluorescence values, MDA-MB-468 (Her2^Low) GFP-C6.5",[1],"5,632"
same,"Median Fluorescence Values, Her2− GFP-C6.5",[3]; 0.03 uM,"4,460"
same,"Median Fluorescence Values, Her2− GFP-C6.5",[3]; 0.1 uM,"4,824"
same,"Median Fluorescence Values, Her2− GFP-C6.5",[3]; 0.3 uM,"4,947"
same,"cellular uptake (flow cytometry with detection of GFP), Her2− GFP-C6.5",[6]; 10 min,"4,081"
same,"cellular uptake (flow cytometry with detection of GFP), Her2− GFP-C6.5",[6]; 30 min,"3,986"
same,"cellular uptake (flow cytometry with detection of GFP), Her2− GFP-C6.5",[6]; 4 h,"4,704"
B1,cellular uptake by fluorescence microscopy,SKOV-3 cells (Her2^high),bound to SKOV-3 cells through Her2 but did not internalize in the cells

# Reference: patent publication US20150030593A1, “COMPOSITIONS OF PENETRATION-ENHANCED TARGETING PROTEINS AND METHODS OF USE” (PERMEON BIOLOGICS, INC., priority 2013, published 2015)
